Measured values reported in US9399042B2, “Method for the removal of subcutaneous fat accumulations by subcutaneous lipolysis by administering a combination of glycyrrhizic acid and soybean phospholipids” (Lichtblick GmbH, priority 2010, dated 2016).
“Also recorded” adds a separate entry of the source. Read-outs that look alike come from different tables or passages of the source. Blank lines part the entries; values can stand above or below the molecule they belong to.

What was measured:
[1] = test system: 3T3-L1 cells; test: Lipolysis assay (glycerol release) with differentiated 3T3-L1 cells; type: cell-based, murine; conditions: 10 μM, 4 hours, 3% BSA/PBS; positive control
Procedure: 3T3-L1 cells were stimulated by a hormone cocktail to adipogenesis and differentiated for another 8 days to mature adipocytes. […] The lipolytic activity was measured using a lipolysis assay, as described below: The cleavage of triglycerides into glycerol and the three fatty acids is known as lipolysis. This process is catalyzed primarily by the hormone-sensitive lipase and the adipose triglyceride lipase. Using a lipolysis assay the lipolytic activity of cells can be detected. This assay is based on the measurement of glycerol emerged during lipolysis, which is secreted by the cells into the medium. The glycerol is metabolized by enzymatic reactions to glycerol-1-phosphate and then to dihydroxy acetone phosphate. Thereby hydrogen peroxide is produced, which is quantified photometrically with a peroxidase stain reaction. In order to be able to make statements about the lipolytic action of substances, they are compared with the basal lipolysis activity of the cells and with the lipolysis stimulated by the beta-adrenergic receptor. Such a stimulation can be caused by isoproterenol. FIG. 7: Graphical picture of the analysis of the lipolysis assay (μg glycerol/μg DNA) with treated differentiated 3T3-L1 cells. 3T3-L1 were stimulated by a hormonal induction cocktail to adipogenesis and then differentiated for 8 days. […]

[2] = test system: Adipose-Derived Stem Cells (ADSC); test: Propidium iodide (PI) staining of treated differentiated ADSCs (CLSM); type: cell-based, human
Procedure: Further analysis of the cell-damaging effect of sodium deoxycholate on ADSCs was performed by PI staining of the treated cells and subsequent analysis with CLSM. The differentiated, mature adipocytes were treated with: • 0.05 mg/ml, 0.1 mg/ml and 0.5 mg/ml sodium deoxycholate for 4 hours.
Then the cells were incubated in a medium containing 5 µg/ml propidium iodide for 5 minutes. This was followed by microscopic analysis with CLSM at a 63-fold magnification (FIG. 3c).
(§1) After the incubation period (4 hours) the adipocytes were stained with 5 μm/ml PI and analyzed with CLSM. In the upper PI-row (a-e) fluorescence images of PI-stained cells are shown. In the lower PK-row (a-e) the corresponding phase contrast images are presented with the overlapping fluorescence images over one another.
A further analysis of a cell-damaging effect of phosphatidyl choline on ADSCs was performed by PI staining of the treated cells and subsequent analysis with CLSM. The differentiated, mature adipocytes were treated with: • 5 mg/ml, 10 mg/ml and 15 mg/ml phosphatidyl choline for 4 hours.
Then the cells were incubated in a medium containing 5 μg/ml propidium iodide for 5 minutes. This was followed by microscopic analysis with CLSM at a 63-fold magnification (FIG. 4c).
as §1, with “μg/ml” for “μm/ml”, “another (Size bar=20 μm).” for “another.”

[3] = test system: 3T3-L1 cells; test: Membrane damaging / cytotoxic effect on differentiated 3T3-L1 cells (light microscopy, CLSM phase contrast); type: cell-based, murine; conditions: for In vitro Cell damaging causing concentration: single agent
Procedure: In order to test in vitro the effects of phosphatidyl choline on the membrane integrity and stability, differentiated 3T3-L1 cells were incubated with different concentrations of phosphatidyl choline for 4 and 24 hours and then analyzed by light microscopy.
As a model system, the murine preadipocyte cell line 3T3-L1 was used for the studies. 3T3-L1 cells were stimulated to adipogenesis by a conventional hormone cocktail (corticosterone, isobutylmethylxanthine, indomethacin, insulin) and differentiated for another 8 days to mature adipocytes.
The mature adipocytes of the 3T3-L1 cells were treated with various concentrations of phosphatidyl choline.
First, a phosphatidyl choline stock solution was prepared: • 500 mg/ml phosphatidyl choline dissolved in 70% ethanol
The used concentrations of phosphatidyl choline were: • 1 mg/ml, 5 mg/ml, 10 mg/ml, 15 mg/ml, 20 mg/ml
FIG. 1a: Phase contrast images of treated differentiated 3T3-L1 cells in 2D cell culture. The treatment was as follows: • (a) control=untreated cells in differentiation medium • (b) 1 mg/ml of phosphatidyl choline after 24 hours • (b) 5 mg/ml of phosphatidyl choline after 24 hours • (d) 10 mg/ml of phosphatidyl choline after 24 hours • (e) 15 mg/ml of phosphatidyl choline after 24 hours • (f) 20 mg/ml of phosphatidyl choline after 24 hours • (Size bar=100 μm).
FIG. 1b: Phase contrast images using a CLSM at a 63-fold magnification of treated differentiated 3T3-L1 cells in 2D cell culture. The treatment was as follows: • (a) control=untreated cells in differentiation medium after 4 hours • (b) 1 mg/ml of phosphatidyl choline after 4 hours • (c) 5 mg/ml of phosphatidyl choline after 4 hours • (d) 10 mg/ml of phosphatidyl choline after 4 hours • (Size bar=20 μm).
As a model system the murine preadipocyte cell line 3T3-L1 was used for the studies. 3T3-L1 cells were stimulated by a hormone cocktail (corticosterone, isobutylmethylxanthine, indomethacin, insulin) to adipogenesis and differentiated for another 8 days to mature adipocytes.
The mature adipocytes of 3T3-L1 cells were incubated with various concentrations of phosphatidyl choline between 0.1 mg/ml and 50 mg/ml. The phosphatidyl choline was combined with 2-20 mg/ml glycyrrhizinate and 18-180 mg/ml maltose.
The incubation of mature 3T3-L1 cells was performed for a duration of 4 hours with the substances combination.
Then the treated cells were examined at a 63-fold magnification by light microscopy for a membrane destabilizing and cytotoxic effect.
FIG. 9: Phase contrast images of treated differentiated 3T3-L1 cells. 3T3-L1 were stimulated by a hormonal induction cocktail to adipogenesis and then differentiated for 8 days. The mature adipocytes were treated for 24 hours with phosphatidyl choline and sodium deoxycholate from Lipostabil® with the following concentrations: • (a) untreated cells in differentiation medium, • (b) 0.01 mg/ml phosphatidyl choline+0.005 mg/ml Na-deoxycholate, • (c) 0.1 mg/ml phosphatidyl choline+0.05 mg/ml Na-deoxycholate, • (d) 0.25 mg/ml phosphatidyl choline+0.125 mg/ml Na-deoxycholate, • (e) 0.5 mg/ml phosphatidyl choline+0.25 mg/ml Na-deoxycholate, • (f) 1 mg/ml phosphatidyl choline+0.5 mg/ml Na-deoxycholate.
The analysis was done using the light microscope. Cells with damaged membrane or cell fragments are marked examplary with black arrows, while free lipid droplets are indicated by white arrows.

[4] = test system: Adipose-Derived Stem Cells (ADSC); test: Membrane damaging effect on differentiated ADSCs (light microscopy, CLSM); type: cell-based, human; conditions: 4 hours
Description: The human subcutaneous adipose tissue can serve as a potential source of adult stem cells. These so-called “Adipose-Derived Stem Cells” (ADSC) are multipotent and may be differentiated by appropriate stimuli into various cell types, e.g. osteoblasts, chondrocytes, adipocytes. The isolation of ADSCs from human subcutaneous adipose tissue which is removed during plastic reductive surgery, is shown schematically in FIG. 2.
First the fat was washed with buffer to remove hematopoietic cells, and then crushed. The resulting pieces of fatty tissue were digested with collagenase. By centrifugation of the digested tissue the stromal-vascular fraction was separated and the floated mature adipocytes were discarded. The stromal-vascular fraction in the pellet is composed of a heterogeneous cell population of blood cells, fibroblasts, pericytes, endothelial cells and preadipocytes.
This cell population was transferred into a culture bottle with medium, wherein a portion of the cells adhered. By adding a suitable cocktail consisting of insulin, dexamethasone, indomethacin and isobutylmethylxanthine or consisting of insulin, cortisol, troglitazone, triiodothyronine and isobutylmethylxanthine the cells were stimulated for adipogenesis and an improved adipogenic differentiation was achieved.
The ADSCs of Example 4 were stimulated by a hormone cocktail (insulin, cortisol, troglitazone, triiodothyronine and isobutylmethylxanthine) to adipogenesis and then differentiated for another 21 days into mature adipocytes.
This was followed by a treatment with sodium deoxycholate. For this the following concentrations were used: • 0.01 mg/ml, 0.05 mg/ml, 0.075 mg/ml, 0.1 mg/ml and 0.5 mg/ml.
The incubation period was 4 hours.
This concentration range has been already proven to be effective in 3T3-L1. After the incubation period of 4 hours, the differentiated treated cells were subsequently viewed by light microscopy (FIG. 3a).
Additionally, ADSCs treated with sodium deoxycholate were examined with CLSM. The differentiated, mature adipocytes were treated with: • 0.01 mg/ml, 0.05 mg/ml and 0.1 mg/ml sodium deoxycholate for 4 hours.
This was followed by microscopic analysis with CLSM at a 63-fold magnification (FIG. 3b). […]

Molecule: CC(C)NCC(O)c1ccc(O)c(O)c1 (centres unmarked) [isoproterenol]
- lipolytic activity compared to the basal level [1]: eight times the basal level

- PI staining (membrane integrity) [2]: red cells stained by PI
Molecule: Triton

Molecule: sodium deoxycholate [Na-deoxycholate]
- membrane damaging effect ([3]; 0.05 mg/ml): membrane-damaging effects occurred
- membrane damaging effect ([3]; 0.5 mg/ml): highly toxic
- effect on the cell membrane ([3]; 20 mg/ml): clear destruction of the cell membrane
- In vitro Cell damaging causing concentration [3]: ≥ 0.05 mg/mL
- In vitro Cell damaging causing concentration ([3]; listed as Na Deoxycholate): from 0.05 mg/ml
- PI staining (membrane integrity) ([2]; 0.05 mg/ml, 4 hours): no red-stained cells
- PI staining (membrane integrity) ([2]; 0.1 mg/ml, 4 hours): individual red-stained cells
- PI staining (membrane integrity) ([2]; 0.5 mg/ml, 4 hours): many and clearly red-stained cells
- PI staining (membrane integrity) ([2]; 5, 10 and 15 mg/ml, 4 hours): no red-stained cells
- membrane damaging / cytotoxic effect ([4]; 0.01 mg/ml): no effect on the cells; also recorded: no cytotoxic effect
- membrane damaging / cytotoxic effect ([4]; 0.05 mg/ml): slight damages of the cell membrane
- membrane damaging / cytotoxic effect ([4]; 0.05 mg/ml, listed as Na-DC): injury
- membrane damaging / cytotoxic effect ([4]; 0.1 mg/ml, CLSM): strong membrane damage
- membrane damaging / cytotoxic effect ([4]; 0.5 mg/ml): significantly toxic effect on the cells
- membrane damaging / cytotoxic effect ([4]; 0.5 mg/ml, listed as Na-DC): dead
